In the supplement of paper PMC11451515:

System: NOMO1
Experiment: cell viability relative to DMSO control; higher = less cytotoxic
Conditions: 48 h
In short: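 Viability, reported as a per-plate percentage of DMSO wells with cell-free wells as background, came from CellTiter-Glo One luminescence. Reading took place after 48 h at 37°C. Before that, NOMO1 or SEM (500 cells/well) or P12-Ichikawa (1000 cells/well) leukemia cells, adapted for at least four passages in each medium, were seeded in 1536-well plates (5 μl) and pin-dosed with library compounds in DMSO, 47 μM to 0.79 nM over 11 threefold points.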

[1] = HPLM + 10% dialyzed FBS, 0.000781 µM
[2] = HPLM + 10% dialyzed FBS, 0.00234 µM
[3] = HPLM + 10% dialyzed FBS, 0.00702 µM
[4] = HPLM + 10% dialyzed FBS, 0.0211 µM
[5] = HPLM + 10% dialyzed FBS, 0.0632 µM
[6] = HPLM + 10% dialyzed FBS, 0.19 µM
[7] = HPLM + 10% dialyzed FBS, 0.569 µM
[8] = HPLM + 10% dialyzed FBS, 1.71 µM
[9] = HPLM + 10% dialyzed FBS, 5.12 µM
[10] = HPLM + 10% dialyzed FBS, 15.4 µM
[11] = HPLM + 10% dialyzed FBS, 46.1 µM
[12] = RPMI 5 mM glucose + 10% dialyzed FBS, 0.000781 µM
[13] = RPMI 5 mM glucose + 10% dialyzed FBS, 0.00234 µM
[14] = RPMI 5 mM glucose + 10% dialyzed FBS, 0.00702 µM
[15] = RPMI 5 mM glucose + 10% dialyzed FBS, 0.0211 µM
[16] = RPMI 5 mM glucose + 10% dialyzed FBS, 0.0632 µM
[17] = RPMI 5 mM glucose + 10% dialyzed FBS, 0.19 µM
[18] = RPMI 5 mM glucose + 10% dialyzed FBS, 0.569 µM
[19] = RPMI 5 mM glucose + 10% dialyzed FBS, 1.71 µM
[20] = RPMI 5 mM glucose + 10% dialyzed FBS, 5.12 µM
[21] = RPMI 5 mM glucose + 10% dialyzed FBS, 15.4 µM
[22] = RPMI 5 mM glucose + 10% dialyzed FBS, 46.1 µM
[23] = RPMI 5 mM glucose + 10% FBS, 0.000781 µM
[24] = RPMI 5 mM glucose + 10% FBS, 0.00234 µM
[25] = RPMI 5 mM glucose + 10% FBS, 0.00702 µM
[26] = RPMI 5 mM glucose + 10% FBS, 0.0211 µM
[27] = RPMI 5 mM glucose + 10% FBS, 0.0632 µM
[28] = RPMI 5 mM glucose + 10% FBS, 0.19 µM
[29] = RPMI 5 mM glucose + 10% FBS, 0.569 µM
[30] = RPMI 5 mM glucose + 10% FBS, 1.71 µM
[31] = RPMI 5 mM glucose + 10% FBS, 5.12 µM
[32] = RPMI 5 mM glucose + 10% FBS, 15.4 µM
[33] = RPMI 5 mM glucose + 10% FBS, 46.1 µM

Row | SMILES | cell viability [1] | cell viability [2] | cell viability [3] | cell viability [4] | cell viability [5] | cell viability [6] | cell viability [7] | cell viability [8] | cell viability [9] | cell viability [10] | cell viability [11] | cell viability [12] | cell viability [13] | cell viability [14] | cell viability [15] | cell viability [16] | cell viability [17] | cell viability [18] | cell viability [19] | cell viability [20] | cell viability [21] | cell viability [22] | cell viability [23] | cell viability [24] | cell viability [25] | cell viability [26] | cell viability [27] | cell viability [28] | cell viability [29] | cell viability [30] | cell viability [31] | cell viability [32] | cell viability [33]
1 | CCCCCCCCCCCCCCCCCCCCCCO | 108% | 134% | 120% | 140% | 125% | 150% | 133% | 148% | 147% | 147% | 129% | 121% | 107% | 129% | 128% | 132% | 140% | 141% | 140% | 123% | 143% | 145% | – | – | – | – | – | – | – | – | – | – | –
2 | COC1=CC=CC=C1C2=CC=CC(=C2)C/3=C(O)/C4=CC(=C(Cl)C=C4NC3=O)C#N | 110% | 120% | 109% | 109% | 129% | 114% | 107% | 103% | 31.2% | 5.52% | 1.77% | 92.2% | 103% | 95.4% | 93.6% | 96.4% | 88.3% | 104% | 108% | 84.5% | 21% | 4.29% | 89.6% | 111% | 113% | 98.5% | 107% | 108% | 113% | 110% | 82.4% | 13.4% | 2.44%
3 | Cc1cc(OCCCc2c(C(=O)O)n(Cc3cccnc3)c3c(-c4c(COc5ccc(N6CCN([S+](C)(=O)[O-])CC6)cc5)nn(C)c4C)cccc23)cc(C)c1Cl | 92.9% | 112% | 98.3% | 107% | 100% | 104% | 100% | 92.7% | 92.1% | 87% | 71.8% | 92.4% | 90.5% | 98.1% | 98.4% | 95.8% | 86.1% | 87.7% | 98.2% | 96.7% | 91.2% | 78.6% | 86% | 87.7% | 94.8% | 89.8% | 95.6% | 90.8% | 87.7% | 91.5% | 82.4% | 78.5% | 74.9%
4 | CNC1CCC(N(Cc2cccc(-c3ccncc3)c2)C(=O)c2sc3ccccc3c2Cl)CC1 (stereo not drawn) | 74.1% | 92.9% | 104% | 113% | 107% | 99% | 101% | 36.1% | 6.61% | 7.33% | 1.5% | 79.3% | 88.3% | 93.2% | 87% | 84.7% | 97.8% | 95.9% | 102% | 55% | 60.4% | 1.53% | 90.8% | 85.3% | 85.5% | 93% | 86% | 90.6% | 92.4% | 87.7% | 11.3% | 5.87% | 1.62%
5 | CCCCCOC(=O)NC\1=N\C(=O)N(\C=C1F)[C@@H]2O[C@H](C)[C@@H](O)[C@H]2O | 114% | 111% | 97% | 99.7% | 95.6% | 106% | 92.9% | 98.7% | 93.8% | 72.8% | 81.4% | 99.2% | 105% | 106% | 105% | 103% | 99.4% | 101% | 109% | 92% | 73.8% | 92.5% | 90.8% | 92.6% | 97.9% | 90.8% | 90.7% | 102% | 91.2% | 87.9% | 86.4% | 85% | 83.3%
6 | FC(F)(F)c1ccc(/C=C/c2nc(COc3ccc(CCCCn4ccnn4)cc3)co2)cc1 | 127% | 125% | 122% | 127% | 120% | 104% | 107% | 79.4% | 27.7% | 25.2% | 22.6% | 122% | 143% | 122% | 124% | 124% | 116% | 130% | 128% | 27.8% | 24.1% | 19.9% | 125% | 122% | 128% | 137% | 134% | 127% | 126% | 92.1% | 20.5% | 15.3% | 13.1%
7 | OC1=CC=C(C=C1)\C2=C\OC3=C(C=CC(=C3)O)C2=O | 97.3% | 92.8% | 102% | 119% | 118% | 99.6% | 105% | 106% | 104% | 93.9% | 99.6% | 98.8% | 108% | 84.2% | 107% | 112% | 96.1% | 105% | 96.6% | 102% | 89% | 94.5% | 93.1% | 91.6% | 89% | 93.4% | 119% | 96.2% | 92.4% | 86.8% | 103% | 100% | 94.2%
8 | CN(C)CCOc1cc(-c2cn[nH]c2)ccc1NC(=O)C1COc2ccccc2O1 (stereo not drawn) | 84.2% | 104% | 118% | 122% | 118% | 106% | 119% | 107% | 122% | 93.9% | 67.1% | 98.5% | 100% | 106% | 112% | 114% | 97.7% | 102% | 96.9% | 91.5% | 71.8% | 77% | 105% | 93.2% | 110% | 127% | 94.7% | 97.5% | 114% | 96.3% | 85.4% | 81.5% | 64.3%
